From article PMC4891189 (Pharmaceutical research, 2015)
Entries after “also recorded” stand apart in the source; their conditions may differ.

What was measured:
[1] = tested on: P-gp; assay: Bidirectional transport across Caco-2 cell monolayers; conditions: human
[2] = tested on: MDCK-MDR1 cell monolayers; assay: Bidirectional transport across MDCK-MDR1 cell monolayers; assay type: in vitro ADME, canine
[3] = tested on: P-gp (MDR1); assay: as above; assay type: in vitro ADME, canine; conditions: dog
[4] = PAMPA permeability at different pH
[5] = tested on: hemodynamic effects; conditions: healthy subjects ref 8; cited from earlier work
[6] = tested on: Caco-2 cell monolayers; assay: Bidirectional transport across Caco-2 cell monolayers; conditions: 50 µM
[7] = tested on: rat jejunum
[8] = tested on: beta-blocking activity; conditions: animal studies ref 7; cited from earlier work
[9] = tested on: rat jejunum; assay: Transport study in rat jejunum Ussing chamber; conditions: after 90 min, leakage indicator
[10] = cited from earlier work
[11] = tested on: P-gp; conditions: mdr1a (−/−) mice intestine ref 29; cited from earlier work
[12] = oral administration, after first-pass metabolism; cited from earlier work
[13] = tested on: human jejunum; conditions: single-pass perfusion, healthy volunteers ref 9; cited from earlier work
[14] = Caco-2, pH 7.4, with GG918 0.5 µM
[15] = MDCK-MDR1, pH 7.4, with GG918 0.5 µM
[16] = 50 µM, MDCK-MDR1, pH 7.4, GG918 0.5 µM

C[C@H]1O[C@@H](O[C@H]2[C@@H](O)C[C@H](O[C@H]3[C@@H](O)C[C@H](O[C@H]4CC[C@@]5(C)[C@H](CC[C@@H]6[C@@H]5C[C@@H](O)[C@]5(C)[C@@H](C7=CC(=O)OC7)CC[C@]65O)C4)O[C@@H]3C)O[C@@H]2C)C[C@H](O)[C@@H]1O [Digoxin, digoxin]
Papp A→B at 120 min, 0.01 µM ([1]; Caco-2, pH 7.4): 0.64 ± 0.03 ×10⁻⁶ cm/s
Papp B→A at 120 min, 0.01 µM ([1]; Caco-2, pH 7.4): 1.64 ± 0.13 ×10⁻⁶ cm/s
efflux ratio at 120 min, 0.01 µM ([1]; Caco-2, pH 7.4): 2.57 ± 0.33
Papp A→B at 120 min, 0.01 µM [1, 14]: 1.17 ± 0.07 ×10⁻⁶ cm/s
Papp B→A at 120 min, 0.01 µM [1, 14]: 1.19 ± 0.05 ×10⁻⁶ cm/s
efflux ratio at 120 min, 0.01 µM [1, 14]: < 2
Efflux Ratio ([2]; Digoxin 0.01 µM, MDR1-MDCK cells, +GG918 0.5 µM): 1.52±0.16
Papp A→B at 120 min, 0.01 µM ([3]; MDCK-MDR1, pH 7.4): 0.26 ± 0.02 ×10⁻⁶ cm/s
Papp B→A at 120 min, 0.01 µM ([3]; MDCK-MDR1, pH 7.4): 2 ± 0.01 ×10⁻⁶ cm/s
Papp A→B at 120 min, 0.01 µM [3, 15]: 0.41 ± 0.1 ×10⁻⁶ cm/s
Papp B→A at 120 min, 0.01 µM [3, 15]: 0.67 ± 0.06 ×10⁻⁶ cm/s
efflux ratio at 120 min, 0.01 µM ([3]; MDCK-MDR1, pH 7.4, with GG918 0.5 µM, Efflux Ratio, Digoxin 0.01 µM, MDR1-MDCK cells, +GG918 0.5 µM): < 2
effect of apical pH on permeability ([4]; 5 µM digoxin): no statistical differences; also recorded: did not show different permeability results

CC(C)NC[C@@H](O)COc1cccc2ccccc12 [R-propranolol]
hemodynamic effects [5]: ineffective

CC(C)NCC(O)COc1cccc2ccccc12 (centres unmarked) [S-propranolol]
change of Papp, A->B as apical pH changed from 7.4 to 6.5 ([6]; Caco-2): markedly decreased
change of Papp, B->A as apical pH changed from 7.4 to 6.5 ([6]; Caco-2): significantly increased
Papp, A->B in the presence of GG918 ([6]; Caco-2, apical pH 6.5): small but significant increase
basolateral to apical efflux in the presence or absence of GG918 ([6]; Caco-2, apical pH 6.5): no significant differences
effect of GG918 on basolateral and apical permeabilities ([2]; 25 nM, MDCK-MDR1, pH 7.4 on both sides): no effect of GG918 was observed
Papp, A->B in the presence of GG918 ([2]; 50 µM, MDCK-MDR1, apical pH 6.5): decreased significantly
Papp, A→B in the absence or presence of GG918 [2, 16]: unexplained significant difference
basolateral to apical efflux in the absence or presence of GG918 [2, 16]: no significant differences
effect of verapamil on Papp in the absorptive direction ([7]; not told): did not alter
change of Papp mucosal to serosal (absorption) with mucosal pH ([7]; pH 6.5): statistically significant decrease
effect of mucosal pH on serosal to mucosal permeability (secretion) ([7]; pH 6.5): didn’t significantly affect
beta-blocking activity, times more potent than R-propranolol [8]: 100 times
mass retention ([4]; 25 nM): 58±4%
mass retention ([4]; 50 µM): 12%±1
permeability compared with high permeability standard labetalol ([4]; 50 µM each, pH 7.4 both sides): higher permeability than 50 µM labetalol
simulated efflux ratio (Papp, B->A/ Papp, A->B) ([4]; 50 µM, apical pH 6.5, basolateral pH 7.4): 3.39
simulated efflux ratio (Papp, B->A/ Papp, A->B) ([4]; 50 µM, apical pH 7.4, basolateral pH 7.4): 1
Papp, A->B ([4]; 50 µM, pH 6.5→pH 7.4): 8.1±0.3 × 10^−6 cm/sec
simulated Papp, B->A ([4]; 50 µM, pH 7.4→pH 6.5): 27.3±0.4 × 10^−6 cm/sec
Papp ([4]; 50 µM, pH 7.4→pH 7.4): 19.2±2.6 × 10^−6 cm/sec
mass retention ([4]; 100 µM): 8%±1
pH dependent transcellular permeability at 100 µM compared with 50 µM ([4]; 100 µM): almost identical to that observed at 50 µM

O=S1(=O)OC(c2ccc(O)cc2)(c2ccc(O)cc2)c2ccccc21 [phenol red]
permeated from the mucosal to serosal side [9]: less than 1%

CC(C)NCC(O)COc1cccc2ccccc12.Cl (centres unmarked) [propranolol HCl]
dose number [10]: 0.006

CC(C)NCC(O)COc1cccc2ccccc12 (centres unmarked) [propranolol]
permeability, P-gp expressed vs knocked out [11]: not influenced
dose reaching the systemic circulation unchanged [12]: 25%
effective permeability [13]: 280 ×10⁻⁶ cm/s
